The values that follow come from patent US10905657B2, “Solid dispersions of Coenzyme Q10” (Indena S.P.A., priority 2015, dated 2021).

This series can be described thus: Pharmacokinetic study in rats after single oral dose. Conditions: male, Sprague-Dawley, rat, in vivo, 50 mg/kg, intragastric gavage, single dose 50 mg Coenzyme Q10/Kg, suspended in 1% carboxymethyl cellulose, plasma. As for the experimental part:
Pharmacokinetic parameters (Tmax, Cmax, absolute bioavailability) were determined in rats after the oral administration of a single dose of Coenzyme Q10 as crystalline powder and as solid dispersion with phospholipids.
Male Sprague-Dawley rats, weighting 300-350 g were used for the pharmacokinetic experiment. Rats were fasted 16 hours before administration with free access to water.
Coenzyme Q10 as crystalline powder and as solid dispersion with phospholipids were suspended in 1% carboxymethyl cellulose water suspension and administered by intragastric gavage as a single dose of 50 mg of Coenzyme Q10/Kg.
Blood samples were collected from tail vein after 0.5-1.0-2.0-4.0-8.0-12.0 and 24 hours after administration.
Plasma was obtained from blood samples by centrifugation at 5.000×g for 15 minutes and kept frozen (−20° C.) until analysis. After protein sedimentation, Coenzyme Q10 was extracted by plasma samples with n-hexane; the extraction step with hexane was repeated for three times. The hexane phases, separated by centrifugation, were collected and the solvent was removed by evaporation under nitrogen. The residue was dissolved in 2-propanol for HPLC/MS analysis at 275 nm, using internal standard method for Coenzyme Q10 quantification.
The following pharmacokinetic parameters were calculated: […]

Take `COC1=C(OC)C(=O)C(C/C=C(\C)CC/C=C(\C)CC/C=C(\C)CC/C=C(\C)CC/C=C(\C)CC/C=C(\C)CC/C=C(\C)CC/C=C(\C)CC/C=C(\C)CCC=C(C)C)=C(C)C1=O` [Crystalline Coenzyme Q10, Coenzyme Q10]: the Cmax worked out at 230 ng/mL and the Tmax was 3.8 h. For the setting “0-24 hours”, this compound registered an AUC(0-t) of 4100 ng·h/mL.
